The source of these data is ChEMBL document CHEMBL5465560, “Selectivity Literature for EUbOPEN Chemogenomic Library” (2024).

Test [1] deals with Ribosomal protein S6 kinase alpha-5 (Homo sapiens) (UniProt O75582). The test can be described thus: Selectivity interaction (KinomeScan (DiscoverX)) EUB0001619a RPS6KA5. The note with it: at 1 µM.
In test [2] the target is RAF proto-oncogene serine/threonine-protein kinase (Homo sapiens) (UniProt P04049). The note with it: at 10 µM.
The target in test [3] is Serine/threonine-protein kinase PRP4 homolog (Homo sapiens) (UniProt Q13523). In words: Selectivity interaction (KinomeScan (DiscoverX)) EUB0000695a PRPF4B. To be noted: at 100 nM.
For test [4], the target named is T1, Tyrosine-protein kinase JAK3 (Homo sapiens) (UniProt P52333).
T1 sequence (whole entry): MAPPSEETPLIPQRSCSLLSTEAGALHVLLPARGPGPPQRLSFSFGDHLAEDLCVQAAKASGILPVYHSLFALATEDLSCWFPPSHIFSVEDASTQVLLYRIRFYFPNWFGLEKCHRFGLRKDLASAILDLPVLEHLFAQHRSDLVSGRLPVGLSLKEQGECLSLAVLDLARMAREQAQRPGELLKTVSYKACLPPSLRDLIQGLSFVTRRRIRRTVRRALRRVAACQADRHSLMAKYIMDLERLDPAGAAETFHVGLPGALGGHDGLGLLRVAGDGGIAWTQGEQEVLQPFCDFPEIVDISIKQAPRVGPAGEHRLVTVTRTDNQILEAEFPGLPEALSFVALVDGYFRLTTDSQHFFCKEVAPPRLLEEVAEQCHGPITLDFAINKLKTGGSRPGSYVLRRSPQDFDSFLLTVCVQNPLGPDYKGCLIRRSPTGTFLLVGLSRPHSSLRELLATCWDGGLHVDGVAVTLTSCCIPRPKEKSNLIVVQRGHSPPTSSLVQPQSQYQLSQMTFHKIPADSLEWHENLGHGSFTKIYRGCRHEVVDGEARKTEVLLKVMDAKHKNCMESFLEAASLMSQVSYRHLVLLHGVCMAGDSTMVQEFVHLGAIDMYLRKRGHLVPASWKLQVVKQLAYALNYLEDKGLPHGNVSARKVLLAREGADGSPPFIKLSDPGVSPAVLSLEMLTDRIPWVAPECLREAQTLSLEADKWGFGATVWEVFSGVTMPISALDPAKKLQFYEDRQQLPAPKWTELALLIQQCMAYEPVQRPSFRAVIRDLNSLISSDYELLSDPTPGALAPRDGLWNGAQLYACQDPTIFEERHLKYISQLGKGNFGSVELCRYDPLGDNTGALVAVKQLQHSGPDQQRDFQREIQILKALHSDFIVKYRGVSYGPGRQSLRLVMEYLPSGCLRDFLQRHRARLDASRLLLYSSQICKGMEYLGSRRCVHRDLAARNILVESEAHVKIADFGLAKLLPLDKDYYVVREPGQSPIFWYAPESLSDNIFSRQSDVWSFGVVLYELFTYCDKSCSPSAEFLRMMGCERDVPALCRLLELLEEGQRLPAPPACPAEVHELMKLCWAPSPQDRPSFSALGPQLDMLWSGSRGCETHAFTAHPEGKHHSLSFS
In words: Selectivity interaction (KinomeScan (DiscoverX)) EUB0000666a JAK3. The note with it: at 10 µM.

The target of test [5] is Receptor tyrosine-protein kinase erbB-2 (Homo sapiens, UniProt P04626). The test can be described thus: Selectivity interaction (Kinase panel (Invitrogen)) EUB0000639a ERBB2. The note with it: at 200 nM.
In test [6] the target is T2, Mitogen-activated protein kinase kinase kinase kinase 2 (Homo sapiens) (UniProt Q12851).
T2 sequence (whole entry): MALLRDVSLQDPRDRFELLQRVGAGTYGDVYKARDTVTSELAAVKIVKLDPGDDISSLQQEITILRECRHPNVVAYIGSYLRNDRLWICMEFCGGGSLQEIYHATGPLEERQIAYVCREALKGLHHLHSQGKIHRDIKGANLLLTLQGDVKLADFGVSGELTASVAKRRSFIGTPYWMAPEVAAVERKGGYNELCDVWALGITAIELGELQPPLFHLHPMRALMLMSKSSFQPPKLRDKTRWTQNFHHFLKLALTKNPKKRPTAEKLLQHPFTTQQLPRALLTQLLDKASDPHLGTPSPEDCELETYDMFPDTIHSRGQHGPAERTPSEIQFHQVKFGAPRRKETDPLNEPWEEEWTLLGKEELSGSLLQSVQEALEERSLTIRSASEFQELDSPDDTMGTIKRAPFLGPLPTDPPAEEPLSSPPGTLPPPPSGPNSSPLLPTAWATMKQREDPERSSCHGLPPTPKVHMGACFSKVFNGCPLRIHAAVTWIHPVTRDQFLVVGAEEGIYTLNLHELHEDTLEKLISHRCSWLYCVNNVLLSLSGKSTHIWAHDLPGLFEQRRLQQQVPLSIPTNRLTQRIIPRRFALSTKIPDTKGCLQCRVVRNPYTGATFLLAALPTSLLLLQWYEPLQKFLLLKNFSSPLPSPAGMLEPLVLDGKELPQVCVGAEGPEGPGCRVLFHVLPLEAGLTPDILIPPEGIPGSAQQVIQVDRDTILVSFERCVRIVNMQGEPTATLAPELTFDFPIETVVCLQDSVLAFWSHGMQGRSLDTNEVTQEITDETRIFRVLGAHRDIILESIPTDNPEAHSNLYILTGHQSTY
In words: Selectivity interaction (ActivX KiNativ screen (kinase selectivity in THP-1 cell lysates)) EUB0000639a MAP4K2. Type of test: subcellular. To be noted: lysate.

For test [7], the target named is Mitogen-activated protein kinase 6 (Homo sapiens) (UniProt Q16659). The test can be described thus: Selectivity interaction (ActivX KiNativ screen (kinase selectivity in THP-1 cell lysates)) EUB0000639a MAPK6. Type of test: subcellular. To be noted: lysate.
The target of test [8] is AP2-associated protein kinase 1 (Homo sapiens, UniProt Q2M2I8). The test can be described thus: Selectivity interaction (Kinase panel (DSF assay)) EUB0001559a AAK1. (DSF heats the sample and reads unfolding from a dye or from intrinsic fluorescence.)
Test [9] concerns the target Citron Rho-interacting kinase (Homo sapiens) (UniProt O14578). The test can be described thus: Selectivity interaction (KinomeScan (DiscoverX)) EUB0000045b CIT.
For a further test, the target named is Aurora kinase B (Homo sapiens, UniProt Q96GD4). The test can be described thus: Selectivity interaction (KinomeScan (DiscoverX)) EUB0000092b AURKB. The note with it: at 10 µM.
Test [10] deals with Phosphatidylinositol 4-kinase beta (Homo sapiens, UniProt Q9UBF8). The test can be described thus: Selectivity interaction (KinomeScan (DiscoverX)) EUB0000092b PI4KB. To be noted: at 10 µM.
Test [11] deals with Tyrosine-protein kinase ABL1 (Homo sapiens), P00519 [Q252H]. The test can be described thus: Selectivity interaction (KinomeScan (DiscoverX)) EUB0001079a ABL1. The note with it: at 1 µM.
Test [12] addresses Phosphatidylinositol 4,5-bisphosphate 3-kinase catalytic subunit beta isoform (Homo sapiens) (UniProt P42338). In words: Selectivity interaction (KinomeScan (DiscoverX)) EUB0000229b PIK3CB. The note with it: at 10 µM.

Sequence of Mitogen-activated protein kinase 6 (Homo sapiens) (Q16659 whole entry): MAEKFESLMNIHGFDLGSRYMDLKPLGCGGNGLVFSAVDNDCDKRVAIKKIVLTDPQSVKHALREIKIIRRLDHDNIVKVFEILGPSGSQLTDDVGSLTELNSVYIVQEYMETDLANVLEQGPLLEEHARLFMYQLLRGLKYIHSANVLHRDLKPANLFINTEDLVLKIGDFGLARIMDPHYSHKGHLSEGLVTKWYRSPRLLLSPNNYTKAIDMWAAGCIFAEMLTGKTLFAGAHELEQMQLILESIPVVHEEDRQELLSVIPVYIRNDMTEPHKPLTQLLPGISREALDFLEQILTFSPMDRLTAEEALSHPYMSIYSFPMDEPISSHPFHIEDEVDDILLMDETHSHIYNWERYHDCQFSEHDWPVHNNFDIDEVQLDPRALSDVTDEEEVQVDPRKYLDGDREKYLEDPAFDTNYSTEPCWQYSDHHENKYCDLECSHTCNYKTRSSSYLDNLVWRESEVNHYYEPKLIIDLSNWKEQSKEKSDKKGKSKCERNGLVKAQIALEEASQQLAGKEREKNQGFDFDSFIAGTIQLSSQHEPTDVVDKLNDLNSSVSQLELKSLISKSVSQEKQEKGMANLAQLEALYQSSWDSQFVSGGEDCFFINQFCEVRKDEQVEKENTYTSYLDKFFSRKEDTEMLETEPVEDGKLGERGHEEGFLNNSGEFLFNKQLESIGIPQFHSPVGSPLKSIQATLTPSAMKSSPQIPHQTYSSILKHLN
Sequence of Citron Rho-interacting kinase (Homo sapiens) (O14578 whole entry): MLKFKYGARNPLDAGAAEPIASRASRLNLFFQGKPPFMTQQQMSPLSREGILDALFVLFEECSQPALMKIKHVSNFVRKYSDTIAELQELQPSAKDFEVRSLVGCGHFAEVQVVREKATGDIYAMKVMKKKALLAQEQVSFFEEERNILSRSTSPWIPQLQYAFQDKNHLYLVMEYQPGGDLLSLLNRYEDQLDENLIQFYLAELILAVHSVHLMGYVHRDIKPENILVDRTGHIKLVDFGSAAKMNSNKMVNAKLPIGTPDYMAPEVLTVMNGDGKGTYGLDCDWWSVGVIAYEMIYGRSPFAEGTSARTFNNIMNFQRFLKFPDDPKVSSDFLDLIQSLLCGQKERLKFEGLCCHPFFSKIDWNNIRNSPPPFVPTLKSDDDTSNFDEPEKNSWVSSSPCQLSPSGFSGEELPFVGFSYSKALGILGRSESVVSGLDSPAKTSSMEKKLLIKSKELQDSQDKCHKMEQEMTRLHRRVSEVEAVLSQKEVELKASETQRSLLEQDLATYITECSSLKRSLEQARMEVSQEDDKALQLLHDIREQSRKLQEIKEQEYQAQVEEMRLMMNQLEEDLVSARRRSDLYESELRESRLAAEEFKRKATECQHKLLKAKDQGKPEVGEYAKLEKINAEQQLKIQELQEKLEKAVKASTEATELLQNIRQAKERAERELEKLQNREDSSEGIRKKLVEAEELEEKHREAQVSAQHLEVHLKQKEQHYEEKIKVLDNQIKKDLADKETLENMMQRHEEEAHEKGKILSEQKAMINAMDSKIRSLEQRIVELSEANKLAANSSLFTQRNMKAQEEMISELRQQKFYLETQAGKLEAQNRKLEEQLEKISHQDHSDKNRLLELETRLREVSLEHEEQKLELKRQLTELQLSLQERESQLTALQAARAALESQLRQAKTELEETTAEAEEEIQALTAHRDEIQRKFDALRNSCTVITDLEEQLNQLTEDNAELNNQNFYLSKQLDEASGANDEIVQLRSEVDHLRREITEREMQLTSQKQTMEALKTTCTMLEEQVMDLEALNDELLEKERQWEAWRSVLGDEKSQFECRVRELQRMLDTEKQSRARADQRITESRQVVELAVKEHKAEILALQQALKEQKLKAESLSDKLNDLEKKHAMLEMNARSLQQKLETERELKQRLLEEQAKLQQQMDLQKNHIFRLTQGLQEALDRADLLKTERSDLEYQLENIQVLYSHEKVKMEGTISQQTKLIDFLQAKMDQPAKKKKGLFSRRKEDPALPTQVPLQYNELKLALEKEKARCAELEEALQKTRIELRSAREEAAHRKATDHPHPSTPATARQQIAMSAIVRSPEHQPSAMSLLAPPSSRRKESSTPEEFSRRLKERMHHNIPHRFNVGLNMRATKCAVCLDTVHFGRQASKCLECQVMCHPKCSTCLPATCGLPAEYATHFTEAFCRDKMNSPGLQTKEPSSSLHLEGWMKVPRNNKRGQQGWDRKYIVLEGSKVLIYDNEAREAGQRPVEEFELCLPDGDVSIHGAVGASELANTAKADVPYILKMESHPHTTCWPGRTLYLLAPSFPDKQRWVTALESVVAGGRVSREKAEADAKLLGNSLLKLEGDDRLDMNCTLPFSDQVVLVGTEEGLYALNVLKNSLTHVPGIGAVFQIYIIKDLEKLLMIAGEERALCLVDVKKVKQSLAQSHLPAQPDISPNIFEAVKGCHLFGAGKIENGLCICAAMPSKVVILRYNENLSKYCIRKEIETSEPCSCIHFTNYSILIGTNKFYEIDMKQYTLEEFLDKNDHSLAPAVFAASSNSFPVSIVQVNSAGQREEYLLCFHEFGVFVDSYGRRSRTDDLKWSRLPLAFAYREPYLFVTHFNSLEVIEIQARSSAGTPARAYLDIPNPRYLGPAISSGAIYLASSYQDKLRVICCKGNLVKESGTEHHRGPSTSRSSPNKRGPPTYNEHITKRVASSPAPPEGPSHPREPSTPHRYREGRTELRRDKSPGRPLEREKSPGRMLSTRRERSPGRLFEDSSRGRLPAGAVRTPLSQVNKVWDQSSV
Sequence of Phosphatidylinositol 4-kinase beta (Q9UBF8 2-816 limits assumed): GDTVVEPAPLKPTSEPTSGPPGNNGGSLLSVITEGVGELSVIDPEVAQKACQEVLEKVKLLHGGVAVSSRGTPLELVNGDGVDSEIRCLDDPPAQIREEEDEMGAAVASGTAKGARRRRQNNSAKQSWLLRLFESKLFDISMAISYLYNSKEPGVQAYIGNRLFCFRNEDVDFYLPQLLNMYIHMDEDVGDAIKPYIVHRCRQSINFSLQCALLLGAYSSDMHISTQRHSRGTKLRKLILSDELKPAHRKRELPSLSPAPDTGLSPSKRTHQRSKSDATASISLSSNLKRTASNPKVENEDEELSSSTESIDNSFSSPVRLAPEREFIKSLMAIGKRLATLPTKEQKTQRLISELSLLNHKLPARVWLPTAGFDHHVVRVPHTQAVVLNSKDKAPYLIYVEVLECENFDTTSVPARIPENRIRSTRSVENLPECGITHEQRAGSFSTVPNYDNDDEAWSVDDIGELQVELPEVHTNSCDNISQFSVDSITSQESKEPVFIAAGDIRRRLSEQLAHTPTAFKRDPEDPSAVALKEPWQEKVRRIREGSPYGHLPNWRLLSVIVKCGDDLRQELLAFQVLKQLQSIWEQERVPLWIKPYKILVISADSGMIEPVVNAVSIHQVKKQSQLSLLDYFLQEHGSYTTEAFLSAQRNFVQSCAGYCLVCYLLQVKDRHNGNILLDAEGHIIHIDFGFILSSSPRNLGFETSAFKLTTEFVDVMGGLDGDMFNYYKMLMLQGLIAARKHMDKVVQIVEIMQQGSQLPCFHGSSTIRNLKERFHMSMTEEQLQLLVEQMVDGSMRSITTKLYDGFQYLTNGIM
Sequence of Phosphatidylinositol 4,5-bisphosphate 3-kinase catalytic subunit beta isoform (Homo sapiens) (P42338 whole entry, looked up, canonical isoform): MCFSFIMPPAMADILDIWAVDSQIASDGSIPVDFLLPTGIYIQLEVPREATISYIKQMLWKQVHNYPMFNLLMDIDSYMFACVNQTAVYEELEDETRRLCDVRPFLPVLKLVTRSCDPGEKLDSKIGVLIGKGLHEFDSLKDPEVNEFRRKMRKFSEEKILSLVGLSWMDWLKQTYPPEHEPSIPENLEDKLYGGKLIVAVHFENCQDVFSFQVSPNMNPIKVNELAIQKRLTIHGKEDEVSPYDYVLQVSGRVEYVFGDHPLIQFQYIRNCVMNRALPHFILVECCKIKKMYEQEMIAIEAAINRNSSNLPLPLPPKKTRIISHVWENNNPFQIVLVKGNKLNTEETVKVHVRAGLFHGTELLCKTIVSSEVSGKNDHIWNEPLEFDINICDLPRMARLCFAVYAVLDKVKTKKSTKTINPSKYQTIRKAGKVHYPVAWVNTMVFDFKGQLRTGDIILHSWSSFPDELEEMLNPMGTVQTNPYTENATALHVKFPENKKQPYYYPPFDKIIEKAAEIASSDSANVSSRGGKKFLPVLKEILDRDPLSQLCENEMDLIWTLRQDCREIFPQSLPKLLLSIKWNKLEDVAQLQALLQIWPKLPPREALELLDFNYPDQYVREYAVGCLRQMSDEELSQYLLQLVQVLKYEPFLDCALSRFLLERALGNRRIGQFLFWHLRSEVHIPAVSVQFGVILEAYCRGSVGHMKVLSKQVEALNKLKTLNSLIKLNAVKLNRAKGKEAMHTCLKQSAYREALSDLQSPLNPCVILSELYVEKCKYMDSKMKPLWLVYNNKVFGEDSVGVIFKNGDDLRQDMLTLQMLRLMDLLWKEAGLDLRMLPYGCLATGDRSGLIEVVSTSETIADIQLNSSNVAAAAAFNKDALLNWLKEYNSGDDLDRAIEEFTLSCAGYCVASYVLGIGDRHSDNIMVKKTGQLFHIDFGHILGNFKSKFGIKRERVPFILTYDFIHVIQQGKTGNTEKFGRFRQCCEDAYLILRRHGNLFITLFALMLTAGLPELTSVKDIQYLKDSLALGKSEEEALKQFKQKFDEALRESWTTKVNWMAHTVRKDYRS
Sequence of Aurora kinase B (Q96GD4 whole entry): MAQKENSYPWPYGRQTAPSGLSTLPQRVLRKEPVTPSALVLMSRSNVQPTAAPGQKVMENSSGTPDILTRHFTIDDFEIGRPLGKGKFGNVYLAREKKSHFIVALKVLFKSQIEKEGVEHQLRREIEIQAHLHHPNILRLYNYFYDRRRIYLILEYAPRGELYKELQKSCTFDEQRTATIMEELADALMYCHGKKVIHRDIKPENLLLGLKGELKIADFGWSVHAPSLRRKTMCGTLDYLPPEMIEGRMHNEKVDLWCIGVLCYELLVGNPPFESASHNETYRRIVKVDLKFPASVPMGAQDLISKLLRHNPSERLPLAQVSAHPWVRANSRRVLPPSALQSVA

With `N#Cc1cccc(-c2c[nH]c3ncnc(N4CCOCC4)c23)c1`, the % of control in [1] was 74%.

Compound `CCN(CC)CCCCNc1ncc2cc(-c3cc(OC)cc(OC)c3)c(NC(=O)NC(C)(C)C)nc2n1` returned a % of control in [2] of 100%.

In test [3], `Cc1cc(F)c(C(=O)Nc2cccc(-c3nncn3C(C)C)n2)cc1-n1cnc(C2CC2)c1` yielded a % of control of 81%.

Regarding `O=C(NOC[C@H](O)CO)c1ccc(F)c(F)c1Nc1ccc(I)cc1F`, the % of control in test [4] was 100%.

As for `CC[C@@H]1[C@H](F)C(=O)N[C@@H]1COc1nccc2cc(C(N)=O)c(OC)cc12` [ZIMLOVISERTIB], the % of inhibition in test [5] was -2.18%; in test [6] (at 0.01 µM), -10%; in test [6] (at 0.04 µM) it was -5.8%; in test [6] (at 0.2 µM), -8.2%; in [6] (at 1 µM) it was -2.9%; in [6] (at 5 µM), -12.1%. The % of inhibition is -20% in [7] (at 0.01 µM); -5.5% in test [7] (at 0.04 µM); -11.8% in [7] (at 0.2 µM); -1.3% in test [7] (at 1 µM); -1% in test [7] (at 5 µM).

Consider `CN(C(=O)c1cnn2cccnc12)c1cc2c(cc1N1CCOCC1)C(=O)N(C[C@@H](F)C(C)(C)O)C2`, for which, in test [8], the dTM is 0.3 K.

With `C=CC(=O)Nc1cc(-n2c(=O)ccc3cnc4ccc(-c5ccc(NS(C)(=O)=O)cc5)cc4c32)ccc1C`, the % of control in test [9] (at 1 µM) stood at 83%; in test [9] (at 10 µM), 53%.

Turning to `CCC(=O)N1CCN(c2ccc(-n3c(=O)ccc4cnc5ccc(-c6cnc7ccccc7c6)cc5c43)cc2C(F)(F)F)CC1`, the % of control on Aurora kinase B was found to be 82%; in [10], 96%.

`Nc1cnc(N2CCc3cc(S(=O)(=O)Nc4c(F)cc(Cl)cc4F)cc(N4CCCC4=O)c32)nc1` [TP-020n]: the % of control in test [11] stood at 98%.

For `COc1cc(N(C)c2ccnc3ccc(C(F)(F)F)cc23)cc(OC)c1OC`, in test [12], the % binding stood at 63%.
